We go through 13 compounds from ChEMBL document CHEMBL4350953, “Inhibitor of Apoptosis Protein (IAP) Antagonists in Anticancer Agent Discovery: Current Status and Perspectives” (J Med Chem, 2019).

Test [1] deals with T1, E3 ubiquitin-protein ligase XIAP (Homo sapiens, UniProt P98170). The test can be described thus: Binding affinity to XIAP-BIR2 domain (unknown origin) by fluorescence polarization-based competition assay. (In general: Fluorescence polarisation rises when a labelled molecule tumbles more slowly, as on binding a larger partner.)
For test [2], the target named is T1, E3 ubiquitin-protein ligase XIAP. The test can be described thus: Binding affinity to XIAP-BIR3 domain (241 to 356 residues) (unknown origin) by fluorescence polarization-based competition assay.
The next test has as its system HL-60. The experiment in a line: Cytotoxicity against human HL60 cells assessed as reduction in cell viability. Type of test: functional, cell-based.
In test [3] the test system is MDA-MB-231. The experiment in a line: Cytotoxicity against human MDA-MB-231 cells assessed as reduction in cell viability.
Another test has as its target T2, Caspase-9 (Homo sapiens, UniProt P55211).
T2 sequence (P55211 whole entry): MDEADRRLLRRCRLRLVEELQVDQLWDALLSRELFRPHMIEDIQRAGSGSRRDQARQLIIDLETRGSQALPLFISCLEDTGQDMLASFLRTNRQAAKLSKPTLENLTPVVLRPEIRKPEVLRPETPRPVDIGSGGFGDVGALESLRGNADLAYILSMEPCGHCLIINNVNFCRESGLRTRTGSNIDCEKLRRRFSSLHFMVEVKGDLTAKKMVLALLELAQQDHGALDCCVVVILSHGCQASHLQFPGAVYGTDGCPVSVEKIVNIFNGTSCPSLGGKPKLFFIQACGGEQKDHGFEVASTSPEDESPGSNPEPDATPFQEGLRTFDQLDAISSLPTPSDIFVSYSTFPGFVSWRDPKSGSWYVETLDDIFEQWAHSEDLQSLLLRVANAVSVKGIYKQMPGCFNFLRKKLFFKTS
The test can be described thus: Inhibition of N-terminal CARD domain of caspase 9 (unknown origin).

Test [4] deals with T1, E3 ubiquitin-protein ligase XIAP. The experiment in a line: Binding affinity to XIAP-BIR2/BIR3 domain (unknown origin).
Test [5] addresses T3, Baculoviral IAP repeat-containing protein 2 (Homo sapiens, UniProt Q13490). The test can be described thus: Induction of cIAP1 (unknown origin) degradation.
Test [6] concerns MDA-MB-231. The experiment in a line: Growth inhibition of human MDA-MB-231 cells. Type of test: functional.
The target in test [7] is T3, Baculoviral IAP repeat-containing protein 2. The test can be described thus: Binding affinity to cIAP1-BIR3 domain (unknown origin).
Test [8] addresses Baculoviral IAP repeat-containing protein 3 (Homo sapiens, UniProt Q13489). The test can be described thus: Binding affinity to cIAP2-BIR3 domain (unknown origin).

T1 sequence (P98170 whole entry, the tested form may be a part): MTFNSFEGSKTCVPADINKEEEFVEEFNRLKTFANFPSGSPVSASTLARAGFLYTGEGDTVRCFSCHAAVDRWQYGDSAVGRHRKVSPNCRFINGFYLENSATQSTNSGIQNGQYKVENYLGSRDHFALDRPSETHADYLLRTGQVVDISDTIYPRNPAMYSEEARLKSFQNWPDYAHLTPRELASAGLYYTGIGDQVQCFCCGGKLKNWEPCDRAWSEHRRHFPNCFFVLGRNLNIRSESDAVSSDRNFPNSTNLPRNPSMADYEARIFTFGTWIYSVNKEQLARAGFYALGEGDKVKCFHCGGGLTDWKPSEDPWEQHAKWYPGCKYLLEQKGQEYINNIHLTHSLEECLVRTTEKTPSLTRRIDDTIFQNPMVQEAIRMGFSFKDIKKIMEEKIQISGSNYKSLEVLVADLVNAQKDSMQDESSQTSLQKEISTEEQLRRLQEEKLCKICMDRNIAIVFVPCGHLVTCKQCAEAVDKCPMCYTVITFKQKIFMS
T3 sequence (Q13490 whole entry): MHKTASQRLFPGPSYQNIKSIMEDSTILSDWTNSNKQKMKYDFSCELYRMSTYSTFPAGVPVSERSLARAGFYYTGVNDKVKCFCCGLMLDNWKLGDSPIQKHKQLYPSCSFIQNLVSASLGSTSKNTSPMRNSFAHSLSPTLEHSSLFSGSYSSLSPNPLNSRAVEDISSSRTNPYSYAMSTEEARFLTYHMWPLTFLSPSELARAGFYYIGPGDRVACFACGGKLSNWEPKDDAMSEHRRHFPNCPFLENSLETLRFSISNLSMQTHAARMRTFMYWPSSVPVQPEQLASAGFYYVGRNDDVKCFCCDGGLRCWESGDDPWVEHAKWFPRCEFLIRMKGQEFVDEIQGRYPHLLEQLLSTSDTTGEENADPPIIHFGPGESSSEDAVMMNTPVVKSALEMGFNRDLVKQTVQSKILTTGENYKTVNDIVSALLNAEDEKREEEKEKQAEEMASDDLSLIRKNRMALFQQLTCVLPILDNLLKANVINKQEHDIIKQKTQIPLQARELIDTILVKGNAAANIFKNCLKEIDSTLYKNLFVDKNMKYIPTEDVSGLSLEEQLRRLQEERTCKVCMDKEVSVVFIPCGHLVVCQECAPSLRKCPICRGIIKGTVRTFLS
Sequence of Baculoviral IAP repeat-containing protein 3 (Q13489 whole entry, the tested form may be a part): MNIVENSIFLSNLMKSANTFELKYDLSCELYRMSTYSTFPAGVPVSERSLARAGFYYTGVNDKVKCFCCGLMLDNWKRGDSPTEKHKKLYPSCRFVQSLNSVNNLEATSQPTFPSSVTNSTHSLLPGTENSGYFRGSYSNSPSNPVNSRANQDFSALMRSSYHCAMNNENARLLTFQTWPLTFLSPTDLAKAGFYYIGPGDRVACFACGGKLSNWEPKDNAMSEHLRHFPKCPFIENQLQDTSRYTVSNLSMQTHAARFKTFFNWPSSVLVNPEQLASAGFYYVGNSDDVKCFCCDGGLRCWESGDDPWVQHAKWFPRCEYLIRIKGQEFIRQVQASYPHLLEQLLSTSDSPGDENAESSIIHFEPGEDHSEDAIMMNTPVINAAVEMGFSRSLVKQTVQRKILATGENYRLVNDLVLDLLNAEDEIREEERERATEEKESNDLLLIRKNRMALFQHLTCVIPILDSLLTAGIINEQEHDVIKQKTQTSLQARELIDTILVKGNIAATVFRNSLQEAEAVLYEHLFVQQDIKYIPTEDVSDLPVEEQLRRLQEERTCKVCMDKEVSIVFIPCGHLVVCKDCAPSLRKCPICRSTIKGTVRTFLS

Take `CN[C@@H](C)C(=O)N[C@H](C(=O)N1CCC[C@H]1C(=O)Nc1snnc1-c1ccccc1)C1CCCCC1` [GDC-0152]: the results for the Kd in test [1] and in test [2] were 112 nM and 28 nM, respectively.
As for `CN[C@@H](C)C(=O)N[C@H]1CCCC[C@H]2CC[C@@H](C(=O)NC(c3ccccc3)c3ccccc3)N2C1=O`, the IC50 in the test with HL-60 was found to be 1400 nM.
As to `CN[C@@H](C)C(=O)N[C@H](C(=O)N1CCC[C@H]1C(=O)N[C@H]1CCCc2ccccc21)C1CCCCC1`, the concentration for half-maximal inhibition (IC50) with MDA-MB-231 [3] was 13 nM. The compound also gave a half-maximal effective concentration (EC50) at Caspase-9 of 310 nM.
`CN[C@@H](C)C(=O)N[C@H](C(=O)N1CCC[C@H]1C(=O)N[C@H]1CCc2ccccc21)C(C)(C)C` registered an equilibrium dissociation constant (Kd) in [2] of 29 nM.
Turning to `CN[C@@H](C)C(=O)N[C@H]1CCCC[C@H]2CC[C@@H](C(=O)N[C@@H](c3ccccc3)c3cn(Cc4ccccc4)nn3)N2C1=O`, the 50% inhibitory concentration (IC50) in the test with HL-60 worked out at 2000 nM; in test [4] it was 376 nM.
`CN[C@@H](C)C(=O)N[C@H](C(=O)N1CCC[C@H]1C(=O)N[C@H]1c2ccccc2C[C@H]1OCC#CC#CCO[C@@H]1Cc2ccccc2[C@@H]1NC(=O)[C@@H]1CCCN1C(=O)[C@@H](NC(=O)[C@H](C)NC)C(C)(C)C)C(C)(C)C` had an EC50 in test [5] of 0.1 nM. The compound also displayed a GI50 in the test on MDA-MB-231 [6] of less than 0.06 nM. The compound further returned an IC50 in [7] of 15 nM.
In the case of `CN[C@@H](C)C(=O)NC1CCCC[C@H]2CC[C@@H](C(=O)N[C@@H](c3ccccc3)c3cn(CCCCc4ccc(CCCCn5cc([C@@H](NC(=O)[C@@H]6CC[C@@H]7CCCC[C@H](NC(=O)[C@H](C)NC)C(=O)N76)c6ccccc6)nn5)cc4)nn3)N2C1=O` (stereo not given in full), in the test with HL-60, the IC50 stood at 1 nM.
`CN[C@@H](C)C(=O)N[C@@H](CNC(=O)c1ccc(S(=O)(=O)F)cc1)C(=O)N1CCC[C@@H]1c1cncc(Cc2ccc(F)cc2)n1` yielded an IC50 in [7] greater than 200 nM.
`CC[C@H](NC)C(=O)N[C@H](C(=O)N1C[C@H]2Cc3cc(Cl)ccc3N2C[C@H]1C(=O)N[C@H]1CCOc2ccccc21)C1CCCCC1` registered a 50% growth inhibitory concentration (GI50) in the test with MDA-MB-231 [6] of 15 nM.
`CN[C@@H](C)C(=O)N[C@H](C(=O)N1CCC[C@H]1C(=O)N[C@H]1CCCc2ccccc21)C(C)(C)C`: in the test on MDA-MB-231 [3], the concentration for half-maximal inhibition (IC50) stood at 68 nM. This compound came in with a 50% effective concentration (EC50) at Caspase-9 of 290 nM.
For the compound `CCO[C@@H]1C[C@@H]2CN(C(=O)[C@@H](NC(=O)[C@H](C)NC)C3CCC(F)(F)CC3)[C@H](C(=O)N[C@H]3CCOc4ccccc43)CN2C1`, in the test with MDA-MB-231 [6], the concentration for 50% growth inhibition (GI50) was 1.8 nM. The dissociation constant Kd in test [7] was 1.3 nM.
As to `CN[C@@H](C)C(=O)N[C@H](C(=O)N1CC[C@@H](Oc2ccccc2)[C@H]1C(=O)N[C@H]1CCCc2ccccc21)C(C)(C)C`, a half-maximal effect on Caspase-9 (EC50) was put at 240 nM.
For the compound `CC[C@H](NC(=O)[C@H](C)NC)C(=O)N1C[C@@H](O)C[C@H]1Cc1c(-c2[nH]c3cc(F)ccc3c2C[C@@H]2C[C@H](O)CN2C(=O)[C@H](CC)NC(=O)[C@H](C)NC)[nH]c2cc(F)ccc12` [BIRINAPANT], in test [8], the affinity, expressed as Kd, was 36 nM.

Usually Kd stands for the constant that tells how readily two partners part at equilibrium. For orientation: IC50 means the point on the concentration scale where inhibition reaches its midpoint. Usually EC50 stands for the concentration needed to bring the measured effect to its halfway point. A high value points to weaker potency. The GI50 is the concentration at which growth is held to half of that of the control. The low end stands for greater sensitivity of the cells, the high end for lower sensitivity of the cells.
